Source: ChEMBL document CHEMBL1201862, “PubChem BioAssay data set” (2004)
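Test compounds were applied to cells in 96-well plates for 48 hours at 5 doses. GI50 is the concentration that inhibits growth by half.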 Activity calls are given as the source filed them. No stated cut-off is given here; in the data, active = GI50 up to about 1.1 µM and inactive = higher.

What was measured:
Assay in all cases: growth of human tumour cells (NCI), 48 h
BT-549 = tested on: BT-549
CAKI-1 = tested on: CAKI-1
DU-145 = tested on: DU-145
EKVX = tested on: EKVX
HCC 2998 = tested on: HCC 2998
HL-60 = tested on: HL-60
Hs-578T = tested on: Hs-578T
NCI-H522 = tested on: NCI-H522
NCI/ADR-RES = tested on: NCI/ADR-RES
OVCAR-4 = tested on: OVCAR-4
OVCAR-8 = tested on: OVCAR-8
RPMI-8226 = tested on: RPMI-8226
SF-268 = tested on: SF-268
SN12C = tested on: SN12C
SW-620 = tested on: SW-620
T47D = tested on: T47D
TK-10 = tested on: TK-10
UO-31 = tested on: UO-31

Measured: GI50

CC1CC(C#N)=C2NCCCCN2C1=O (stereo not given)
inactive: BT-549 > 100 µM | CAKI-1 > 100 µM | DU-145 > 100 µM | EKVX > 100 µM | HCC 2998 > 100 µM | HL-60 > 100 µM | Hs-578T > 100 µM | NCI-H522 > 100 µM | NCI/ADR-RES > 100 µM | OVCAR-4 > 100 µM | OVCAR-8 > 100 µM | RPMI-8226 > 100 µM | SF-268 > 100 µM | SN12C > 100 µM | SW-620 > 100 µM | T47D > 100 µM | TK-10 > 100 µM | UO-31 > 100 µM

O=C1CCCc2cc3c(cc21)CCC3C(=O)O (stereo not given)
inactive: BT-549 > 100 µM | CAKI-1 > 100 µM | DU-145 > 100 µM | EKVX > 100 µM | HCC 2998 > 100 µM | HL-60 > 100 µM | Hs-578T > 100 µM | NCI-H522 > 100 µM | NCI/ADR-RES > 100 µM | OVCAR-4 > 100 µM | OVCAR-8 > 100 µM | RPMI-8226 > 100 µM | SF-268 > 100 µM | SN12C > 100 µM | SW-620 > 100 µM | T47D > 100 µM | TK-10 > 100 µM | UO-31 > 100 µM

CC(C)C(=O)CC(Sc1ccc(N)cc1)c1ccccc1 (stereo not given)
inactive: BT-549 33.7 µM | CAKI-1 34.3 µM | DU-145 25.4 µM | HCC 2998 24.7 µM | HL-60 16.2 µM | Hs-578T 21.7 µM | NCI-H522 15.8 µM | NCI/ADR-RES 33.7 µM | OVCAR-8 25.6 µM | RPMI-8226 17.4 µM | SF-268 28.5 µM | SN12C 28.1 µM | SW-620 16.9 µM | T47D 21.9 µM | TK-10 69.8 µM | UO-31 29.2 µM

CN(c1ccccc1Cl)S(=O)(=O)c1ccc([N+](=O)[O-])cc1
inactive: BT-549 > 100 µM | CAKI-1 > 100 µM | DU-145 > 100 µM | EKVX > 100 µM | HCC 2998 > 100 µM | HL-60 > 100 µM | Hs-578T > 100 µM | NCI-H522 > 100 µM | NCI/ADR-RES > 100 µM | OVCAR-4 > 100 µM | OVCAR-8 > 100 µM | RPMI-8226 > 100 µM | SF-268 > 100 µM | SN12C > 100 µM | SW-620 > 100 µM | T47D > 100 µM | TK-10 > 100 µM | UO-31 > 100 µM
